Measurements taken from patent publication US12492173B2, “Herbicidal substituted N-tetrazolyl aryl carboxamides” (Bayer Aktiengesellschaft, priority 2019, dated 2025).

Assays:
Format in all cases: in vivo
Cyperus esculentus [1] = test: Pre-emergence herbicidal action, CYPES; set-up: key: % activity: 100 = plants have died, 0 = like control plants; details: comparative experiment, 20 g of a.i./ha
Source text: (§1) 1. Pre-Emergence Herbicidal Action Against Harmful Plants Seeds of monocotyledonous and dicotyledonous weed plants and crop plants are laid out in sandy loam soil in wood-fiber pots and covered with soil. The compounds of the invention, formulated in the form of wettable powders (WP) or as emulsion concentrates (EC), are then applied to the surface of the covering soil in the form of an aqueous suspension or emulsion at a water application rate equating to 600 to 800 l/ha, with addition of 0.2% wetting agent. After the treatment, the pots are placed in a greenhouse and kept under good growth conditions for the trial plants. The damage to the test plants is scored visually after a test period of 3 weeks by comparison with untreated controls (herbicidal activity in percent (%): 100% activity=the plants have died, 0% activity=like control plants). […] The tables below illustrate, in an exemplary manner, the […] herbicidal action of the compounds according to the invention, the herbicidal activity being stated in percent. [table] In the experiments that follow, herbicidal action of numerous inventive compounds and the known compounds that are structurally closest from D1 (WO 2012/028579 A1) and D2 (WO 2018/202535 A1) were compared under the above-specified conditions by the pre-emergence and post-emergence method. The example numbers given in the tables relate to the compounds disclosed in the respective documents. In addition to the compounds disclosed in D1 and D2, the following compounds V-1 to V-14 that are encompassed by D1 or D2 but are not compounds specified therein were used in the comparative experiments: • V-1: 2-(methylsulfanyl)-3-(methylsulfinyl)-N-(1-methyl-1H-tetrazol-5-yl)-4-(trifluoromethyl)benzamide • V-2: 2-(methylsulfanyl)-3-(methylsulfonyl)-N-(1-methyl-1H-tetrazol-5-yl)-4-(trifluoromethyl)benzamide • V-3: 2,3-bis(ethylsulfanyl)-N-(1-methyl-1H-tetrazol-5-yl)-4-(trifluoromethyl)benzamide • V-4: 2-chloro-3-(ethylsulfanyl)-N-(1-methyl-1H-tetrazol-5-yl)-4-(trifluoromethyl)benzamide • V-5: 2-chloro-4-iodo-3-(methylsulfanyl)-N-(1-methyl-1H-tetrazol-5-yl)benzamide • V-6: 2-chloro-4-iodo-3-(methylsulfinyl)-N-(1-methyl-1H-tetrazol-5-yl)benzamide • V-7: 2-chloro-4-iodo-3-(methylsulfonyl)-N-(1-methyl-1H-tetrazol-5-yl)benzamide • V-8: 2-bromo-3-(methylsulfanyl)-N-(1-methyl-1H-tetrazol-5-yl)-4-(trifluoromethyl)benzamide • V-9: 2-bromo-3-(methylsulfinyl)-N-(1-methyl-1H-tetrazol-5-yl)-4-(trifluoromethyl)benzamide • V-10: 2-bromo-3-(methylsulfonyl)-N-(1-methyl-1H-tetrazol-5-yl)-4-(trifluoromethyl)benzamide • V-11: 2-bromo-3-(ethylsulfanyl)-N-(1-methyl-1H-tetrazol-5-yl)-4-(trifluoromethyl)benzamide • V-12: 2-bromo-3-(ethylsulfinyl)-N-(1-methyl-1H-tetrazol-5-yl)-4-(trifluoromethyl)benzamide • V-13: 2-bromo-3-(ethylsulfonyl)-N-(1-methyl-1-1H-tetrazol-5-yl)-4-(trifluoromethyl)benzamide • V-14: 2-cyclopropyl-3-(ethylsulfanyl)-N-(1-methyl-1H-tetrazol-5-yl)-4-(trifluoromethyl)benzamide Herbicidal Pre-Emergence Action: […]

Pharbitis purpurea = test: Pre-emergence herbicidal action, PHBPU
Source text: as §1

Polygonum convolvulus [2] = test: Pre-emergence herbicidal action, POLCO; details: for Herbicidal action against POLCO: comparative experiment, 20 g of a.i./ha
Outline: (§2)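 Herbicidal activity is expressed in percent, scored by eye after a 3-week greenhouse period, with 0% matching untreated plants and 100% meaning death. Compounds, as wettable powders or emulsion concentrates, are applied pre-emergence to the covering soil.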

Amaranthus retroflexus [3] = test: Pre-emergence herbicidal action, AMARE; set-up: key to Herbicidal action against AMARE: % activity: 100 = plants have died, 0 = like control plants; details: for Herbicidal action against AMARE: comparative experiment, 20 g of a.i./ha
Outline: as §2

Abutilon theophrasti = test: Pre-emergence herbicidal action, ABUTH; set-up: key to Herbicidal action against ABUTH: % activity: 100 = plants have died, 0 = like control plants; details: for Herbicidal action against ABUTH: comparative experiment, 20 g of a.i./ha
Outline: as §2

Echinochloa crus-galli = test: Pre-emergence herbicidal action, ECHCG; set-up: key to Herbicidal action against ECHCG: % activity: 100 = plants have died, 0 = like control plants; details: for pest or weed control at 20 g/ha: Echinochloa crus-galli, 504 h, read-out: Herbicidal action against ECHCG
Outline: as §2

Viola tricolor = test: Pre-emergence herbicidal action, VIOTR; set-up: key to Herbicidal action against VIOTR: % activity: 100 = plants have died, 0 = like control plants
Outline: as §2

Alopecurus myosuroides [4] = test: Pre-emergence herbicidal action, ALOMY; set-up: key: % activity: 100 = plants have died, 0 = like control plants; details: comparative experiment, 20 g of a.i./ha
Source text: as §1

Stellaria media [5] = test: Pre-emergence herbicidal action, STEME; set-up: key to Herbicidal action against STEME: % activity: 100 = plants have died, 0 = like control plants; details: for Herbicidal action against STEME: comparative experiment, 20 g of a.i./ha
Outline: as §2

Setaria viridis = test: Pre-emergence herbicidal action, SETVI; set-up: key to Herbicidal action against SETVI: % activity: 100 = plants have died, 0 = like control plants; details: for Herbicidal action against SETVI: comparative experiment, 20 g of a.i./ha
Outline: as §2

Cyperus esculentus [6] = test: Post-emergence herbicidal action, CYPES; set-up: key: % herbicidal action vs untreated; 100 = plants died, 0 = like control; details: comparative experiment, post-emergence, 5 g of a.i./ha
Protocol: (§3) [table] 2. Post-Emergence Herbicidal Action Against Harmful Plants Seeds of monocotyledonous and dicotyledonous weed and crop plants are laid out in sandy loam soil in wood-fiber pots, covered with soil and cultivated in a greenhouse under good growth conditions. 2 to 3 weeks after sowing, the test plants are treated at the one-leaf stage. The compounds of the invention, formulated in the form of wettable powders (WP) or as emulsion concentrates (EC), are then sprayed onto the green parts of the plants in the form of an aqueous suspension or emulsion at a water application rate equating to 600 to 800 l/ha, with addition of 0.2% wetting agent. After the test plants have been left to stand in the greenhouse under optimal growth conditions for about 3 weeks, the action of the preparations is assessed visually in comparison to untreated controls (herbicidal action in percent (%): 100% activity=the plants have died, 0% activity=like control plants). […] The tables below illustrate, in an exemplary manner, the post-emergence herbicidal action of the compounds according to the invention, the herbicidal activity being stated in percent. In the experiments that follow, herbicidal action of numerous inventive compounds and the known compounds that are structurally closest from D1 (WO 2012/028579 A1) and D2 (WO 2018/202535 A1) were compared under the above-specified conditions by the pre-emergence and post-emergence method. The example numbers given in the tables relate to the compounds disclosed in the respective documents. In addition to the compounds disclosed in D1 and D2, the following compounds V-1 to V-14 that are encompassed by D1 or D2 but are not compounds specified therein were used in the comparative experiments: • V-1: 2-(methylsulfanyl)-3-(methylsulfinyl)-N-(1-methyl-1H-tetrazol-5-yl)-4-(trifluoromethyl)benzamide • V-2: 2-(methylsulfanyl)-3-(methylsulfonyl)-N-(1-methyl-1H-tetrazol-5-yl)-4-(trifluoromethyl)benzamide • V-3: 2,3-bis(ethylsulfanyl)-N-(1-methyl-1H-tetrazol-5-yl)-4-(trifluoromethyl)benzamide • V-4: 2-chloro-3-(ethylsulfanyl)-N-(1-methyl-1H-tetrazol-5-yl)-4-(trifluoromethyl)benzamide • V-5: 2-chloro-4-iodo-3-(methylsulfanyl)-N-(1-methyl-1H-tetrazol-5-yl)benzamide • V-6: 2-chloro-4-iodo-3-(methylsulfinyl)-N-(1-methyl-1H-tetrazol-5-yl)benzamide • V-7: 2-chloro-4-iodo-3-(methylsulfonyl)-N-(1-methyl-1H-tetrazol-5-yl)benzamide • V-8: 2-bromo-3-(methylsulfanyl)-N-(1-methyl-1H-tetrazol-5-yl)-4-(trifluoromethyl)benzamide • V-9: 2-bromo-3-(methylsulfinyl)-N-(1-methyl-1H-tetrazol-5-yl)-4-(trifluoromethyl)benzamide • V-10: 2-bromo-3-(methylsulfonyl)-N-(1-methyl-1H-tetrazol-5-yl)-4-(trifluoromethyl)benzamide • V-11: 2-bromo-3-(ethylsulfanyl)-N-(1-methyl-1H-tetrazol-5-yl)-4-(trifluoromethyl)benzamide • V-12: 2-bromo-3-(ethylsulfinyl)-N-(1-methyl-1H-tetrazol-5-yl)-4-(trifluoromethyl)benzamide • V-13: 2-bromo-3-(ethylsulfonyl)-N-(1-methyl-1-1H-tetrazol-5-yl)-4-(trifluoromethyl)benzamide • V-14: 2-cyclopropyl-3-(ethylsulfanyl)-N-(1-methyl-1H-tetrazol-5-yl)-4-(trifluoromethyl)benzamide Herbicidal Pre-Emergence Action: […]

Amaranthus retroflexus [7] = test: Post-emergence herbicidal action, AMARE; set-up: key: % herbicidal action vs untreated; 100 = plants died, 0 = like control; details: comparative experiment, post-emergence, 5 g of a.i./ha
Outline: (§4)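 Greenhouse weeds grown in sandy loam were sprayed at the one-leaf stage, 2–3 weeks after sowing, with WP or EC formulations at 600–800 l/ha water plus 0.2% wetting agent. Damage scored visually about 3 weeks later, in percent against untreated controls (100% = plants dead).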

Alopecurus myosuroides [8] = test: Post-emergence herbicidal action, ALOMY; set-up: key: % herbicidal action vs untreated; 100 = plants died, 0 = like control; details: comparative experiment, post-emergence, 5 g of a.i./ha
Outline: as §4

Veronica persica = test: Pre-emergence herbicidal action, VERPE; set-up: key to Herbicidal action against VERPE: % activity: 100 = plants have died, 0 = like control plants; details: for Herbicidal action against VERPE: comparative experiment, 20 g of a.i./ha
Outline: as §2

Stellaria media [9] = test: Post-emergence herbicidal action, STEME; set-up: key: % herbicidal action vs untreated; 100 = plants died, 0 = like control; details: comparative experiment, post-emergence, 5 g of a.i./ha
Outline: as §4

Matricaria inodora = test: Pre-emergence herbicidal action, MATIN; set-up: key to Herbicidal action against MATIN: % activity: 100 = plants have died, 0 = like control plants; details: for Herbicidal action against MATIN: comparative experiment, 20 g of a.i./ha
Outline: as §2

Polygonum convolvulus [10] = test: Post-emergence herbicidal action, POLCO; details: comparative experiment, post-emergence, 5 g of a.i./ha
Protocol: as §3

Hordeum murinum = test: Pre-emergence herbicidal action, HORMU; details: dosage 320 g/ha, scored visually after 3 weeks vs untreated controls (100% = plants have died)
Source text: as §1

[11] = comparative experiment, 20 g of a.i./ha
[12] = dosage 320 g/ha, scored visually after 3 weeks vs untreated controls (100% = plants have died)

Compound	Herbicidal action against CYPES (Cyperus esculentus [1])	Herbicidal action against POLCO (Polygonum convolvulus [2])	Herbicidal action against AMARE (Amaranthus retroflexus [3])	Herbicidal action against ABUTH (Abutilon theophrasti)	pest or weed control at 20 g/ha (Echinochloa crus-galli; [11])	Herbicidal action against ALOMY (Alopecurus myosuroides [4])	Herbicidal action against STEME (Stellaria media [5])	Herbicidal action against SETVI (Setaria viridis)	Herbicidal action against VERPE (Veronica persica)	Herbicidal action against MATIN (Matricaria inodora)	also measured
CSc1c(C(=O)Nc2nnnn2C)ccc(C(F)(F)F)c1[S+](C)[O-] (stereo not drawn) [Example V-1, 2-(methylsulfanyl)-3-(methylsulfinyl)-N-(1-methyl-1H-tetrazol-5-yl)-4-(trifluoromethyl)benzamide, reference compound]	50	0	60	0	50%	–	–	–	–	–	Herbicidal action against PHBPU (Pharbitis purpurea; [11]): 0
Cn1nnnc1NC(=O)c1ccc(C(F)(F)F)c([S+](C)[O-])c1Br (stereo not drawn) [Example V-9, 2-bromo-3-(methylsulfinyl)-N-(1-methyl-1H-tetrazol-5-yl)-4-(trifluoromethyl)benzamide, reference compound]	–	–	–	–	60%	20	60	40	–	–	Herbicidal action against VIOTR (Viola tricolor; [11]): 70
CSc1c(I)ccc(C(=O)Nc2nnnn2C)c1Cl [Example V-5, 2-chloro-4-iodo-3-(methylsulfanyl)-N-(1-methyl-1H-tetrazol-5-yl)benzamide, reference compound]	0	–	70	–	0%	–	0	0	0	20	Herbicidal action against CYPES (Cyperus esculentus [6]): 10; Herbicidal action against AMARE (Amaranthus retroflexus [7]): 70; Herbicidal action against ALOMY (Alopecurus myosuroides [8]): 40; Herbicidal action against STEME (Stellaria media [9]): 10
Cn1nnnc1NC(=O)c1ccc(I)c([S+](C)[O-])c1Cl (stereo not drawn) [Example V-6, 2-chloro-4-iodo-3-(methylsulfinyl)-N-(1-methyl-1H-tetrazol-5-yl)benzamide, reference compound]	–	–	50	40	–	30	0	60	–	60	–
CSc1c(C(=O)Nc2nnnn2C)ccc(C(F)(F)F)c1CS(C)(=O)=O [Example 1-163]	70	70	–	–	–	–	–	–	–	–	herbicidal activity PHBPU (Pharbitis purpurea; [12]): 80%; Herbicidal action against POLCO (Polygonum convolvulus [10]): 70; herbicidal activity VIOTR (Viola tricolor; [12]): 100%; herbicidal activity HORMU (Hordeum murinum): 90%; herbicidal activity POLCO (Polygonum convolvulus [2]; [12]): 100%; herbicidal activity STEME (Stellaria media [5]; [12]): 100%; herbicidal activity AMARE (Amaranthus retroflexus [3]; [12]): 100%; herbicidal activity VERPE (Veronica persica; [12]): 100%; herbicidal activity SETVI (Setaria viridis; [12]): 100%; herbicidal activity ABUTH (Abutilon theophrasti; [12]): 100%; Herbicidal action against ECHCG (Echinochloa crus-galli; [11]): 90; herbicidal activity ECHCG (Echinochloa crus-galli; [12]): 100%; herbicidal activity MATIN (Matricaria inodora; [12]): 100%
Cn1nnnc1NC(=O)c1ccc(C(F)(F)F)c(S(C)(=O)=O)c1Br [Example V-10, 2-bromo-3-(methylsulfonyl)-N-(1-methyl-1H-tetrazol-5-yl)-4-(trifluoromethyl)benzamide, reference compound]	–	–	–	–	–	10	–	–	60	–	–
